pEC50, pIC50: −log10 of the molar value.
Legend:
Format in all cases: cell-based
Panc1-G12D = test: Viability assay (CellTiterBlue, 72 hr) Panc1; conditions: Homo sapiens, PANC-1, GI50, CellTiterBlue, Panc1 K-Ras G12D, read-out: 72 hr Cell Viability Panc1 (G12D)
Method in brief: (§1)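 1000 cells/well, 18 hr pre-incubation at 37 °C; compound added from DMSO stock, 0.5% DMSO final; 72 hr; CellTiterBlue 3 hr, fluorescence Ex550/Em590; GI50 normalized to DMSO = 100%, 100 uM tamoxifen = 0% viability.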

[1] = system: phospho-Akt in Panc1 (G12D); test: In-Cell Western phospho-Akt, Panc1; conditions: Homo sapiens, PANC-1, 1 h; Panc1, one hour treatment; read-out: In-Cell Western Panc1 (G12D) Akt (P)
Method in brief: (§2)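 3000 cells/well, 18 hr pre-incubation; 1 hr compound exposure, 0.5% DMSO final. Formaldehyde fix, Triton permeabilization, primary Ab overnight 4° C, secondary 2 hr. Fluorescence imaging; EC50.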

[2] = system: HCC827 (K-Ras wild type cell line); test: Viability assay (CellTiterBlue, 72 hr) HCC827; conditions: Homo sapiens, GI50, CellTiterBlue, HCC827 K-Ras wild-type
Method in brief: as §1

[3] = system: phospho-ERK in Panc1 (G12D); test: In-Cell Western phospho-ERK, Panc1; conditions: Homo sapiens, PANC-1, 1 h; Panc1, one hour treatment; read-out: In-Cell Western Panc1 (G12D) Erk (P)
Method in brief: as §2

[4] = system: Ishikawa (K-Ras wild type cell line); test: Viability assay (CellTiterBlue, 72 hr) Ishikawa; conditions: Homo sapiens, GI50, CellTiterBlue, Ishikawa K-Ras wild-type
Method in brief: as §1

HCT116-G31D = test: Viability assay (CellTiterBlue, 72 hr) HCT116; conditions: Homo sapiens, HCT-116, GI50, CellTiterBlue, HCT116 K-Ras G13D, read-out: 72 hr Cell Viability HCT116 (G13D)
Method in brief: as §1

Panc10.05-G12D = test: Viability assay (CellTiterBlue, 72 hr) Panc10.05; conditions: Homo sapiens, Panc1005, GI50, CellTiterBlue, Panc10.05 K-Ras G12D, read-out: 72 hr Cell Viability Panc10.05 (G12D)
Method in brief: as §1

[5] = system: U87-MG (K-Ras wild type cell line); test: Viability assay (CellTiterBlue, 72 hr) U87-MG; conditions: Homo sapiens, U-87 MG, GI50, CellTiterBlue, U87-MG K-Ras wild-type
Method in brief: as §1

[6] = system: phospho-Akt in HCC827 (Wild-type); test: In-Cell Western phospho-Akt, HCC827; conditions: Homo sapiens, 1 h; HCC827, one hour treatment; read-out: In-Cell Western HCC827 (Wild-type) Akt (P)
Protocol: In-cell phosphorylation assays for Erk and Akt were performed on several of the compounds and exemplary results are shown in Table 3 below using HCC827 and A375 cell lines for wild type K-Ras and Panc1 and Panc10.05 cell lines for G12D K-Ras mutants. Results are expressed in μM and corresponding structures are shown in FIGS. 2A-2G and Examples 1-152, above.
Cells are seeded in complete medium into black sided, clear-bottom 384-well microplates at 3000 cells/[…]/well. Plates are returned to 37° C. CO2 incubator for 18 hr. Drug is made as 200× in DMSO and diluted into medium to 10×. To each well is added 4 ul 10× test article or controls, and plates are returned to the incubator. Final assay DMSO concentration is 0.5%. After one hour, cells are fixed in formaldehyde, rinsed & permeabilized with triton X-100, and blocked with BSA/Goat serum blocking solution. Primary phospho-Akt and phospho-ERK antibodies are added and plates are incubated overnight at 4° C. Plates are rinsed with Tween-20 wash buffer and secondary antibody (Goat anti-rabbit, Thermofisher) is added. After 2 hours, plates are rinsed in Tween-20 wash buffer, and then PBS. Plates are imaged on the Celigo (Nexcelom) and cellular fluorescence is quantitated. Full inhibition of phospho-Akt is achieved with 1 uM BEZ235 (Sellekchem), while full inhibition of phospho-ERK is achieved with 1 uM MEK Inhibitor II Calbiochem). EC50 values are calculated using Graphpad Prism.

[7] = system: phospho-ERK in HCC827 (Wild-type); test: In-Cell Western phospho-ERK, HCC827; conditions: Homo sapiens, 1 h; HCC827, one hour treatment; read-out: In-Cell Western HCC827 (Wild-type) Erk (P)
Method in brief: as §2

[8] = system: phospho-Akt in A375 (Wild-type); test: In-Cell Western phospho-Akt, A375; conditions: Homo sapiens, A-375, 1 h; A375, one hour treatment; read-out: In-Cell Western A375 (Wild-type) Akt (P)
Method in brief: as §2

wild type K-Ras = biological target: T1, wild type K-Ras (Homo sapiens, UniProt P01116); test: G-LISA Ras activation, 293H cells transfected with Ras wild-type, EGF stimulated; conditions: compound 1 hour, then 100 ng/ml EGF 2 minutes
T1 construct: expressed in transfected cells; host or cells: 293H cells
Method in brief: (§3)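 Active Ras was quantified by G-LISA in lysates of 293H cells transiently expressing wild-type or mutant Ras. Compounds (3.125-25 μM) were applied for 1 hour; only wild-type transfected cells were stimulated with 100 ng/ml EGF for 2 minutes.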

[9] = system: A375 (K-Ras wild type cell line); test: Viability assay (CellTiterBlue, 72 hr) A375; conditions: Homo sapiens, A-375, GI50, CellTiterBlue
Method in brief: as §1

[10] = system: phospho-ERK in A375 (Wild-type); test: In-Cell Western phospho-ERK, A375; conditions: Homo sapiens, A-375, 1 h; A375, one hour treatment; read-out: In-Cell Western A375 (Wild-type) Erk (P)
Method in brief: as §2

[11] = system: phospho-Akt in Panc10.05 (G12D); test: In-Cell Western phospho-Akt, Panc10.05; conditions: Homo sapiens, Panc1005, 1 h; Panc10.05, one hour treatment; read-out: In-Cell Western Panc10.05 (G12D) Akt (P)
Method in brief: as §2

[12] = system: phospho-ERK in Panc10.05 (G12D); test: In-Cell Western phospho-ERK, Panc10.05; conditions: Homo sapiens, Panc1005, 1 h; Panc10.05, one hour treatment; read-out: In-Cell Western Panc10.05 (G12D) Erk (P)
Method in brief: as §2

K-Ras G12D = biological target: T2, K-Ras G12D (Homo sapiens, UniProt P01116, G12D); test: G-LISA Ras activation, 293H cells transfected with G12D mutant; conditions: compound 1 hour
T2 construct: expressed in transfected cells; host or cells: 293H cells
Method in brief: as §3

T1 sequence (P01116 whole entry): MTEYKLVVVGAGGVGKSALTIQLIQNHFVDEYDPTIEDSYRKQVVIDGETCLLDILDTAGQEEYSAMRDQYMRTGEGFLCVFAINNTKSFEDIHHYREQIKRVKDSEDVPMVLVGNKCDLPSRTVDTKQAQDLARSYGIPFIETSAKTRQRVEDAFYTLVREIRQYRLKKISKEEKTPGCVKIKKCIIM
T2 sequence (P01116 whole entry G12D): as the sequence (P01116 whole entry) above, with G12D counted along it

SMILES | pIC50 (Panc1-G12D) | pEC50 [1] | pIC50 [2] | pEC50 [3] | pIC50 [4] | pIC50 (HCT116-G31D) | pIC50 (Panc10.05-G12D) | pIC50 [5] | pEC50 [6] | pEC50 [7] | pEC50 [8] | IC50 (wild type K-Ras) [µM] | pIC50 [9] | pEC50 [10] | pEC50 [11] | pEC50 [12] | IC50 (K-Ras G12D) [µM]
CCn1cc(C(=O)Nc2nc(-c3ccc4c(c3)CCC(=O)N4)cs2)c(C(F)(F)F)n1 [Compound 39, 1-ethyl-N-(4-(2-oxo-1,2,3,4-tetrahydroquinolin-6-yl)thiazol-2-yl)-3-(trifluoromethyl)-1-pyrazole-4-carboxamide] | < 4.60 | < 4.60 | < 4.60 | 4.55 | < 4.60 | < 4.60 | < 4.60 | < 4.60 | < 4.60 | < 4.60 |  |  |  |  |  |  | 
Cc1nn(-c2ccccc2)cc1C(=O)Nc1nc(-c2ccc3c(c2)CCC(=O)N3)cs1 [Compound 31, 3-methyl-N-(4-(2-oxo-1,2,3,4-tetrahydroquinolin-6-yl)thiazol-2-yl)-1-phenyl-1H-pyrazole-4-carboxamide] | < 4.60 | < 4.60 | < 4.60 | < 4.60 | < 4.60 | < 4.60 | < 4.60 | < 4.60 | < 4.60 | < 4.60 |  |  |  |  |  |  | 
Cn1cc(C(=O)Nc2nc(-c3ccc4c(c3)CCC(=O)N4)cs2)c(C(C)(C)C)n1 [Compound 38, 3-(tert-butyl)-1-methyl-N-(4-(2-oxo-1,2,3,4-tetrahydroquinolin-6-yl)thiazol-2-yl)-1H-pyrazole-4-carboxamide] | < 4.60 | 4.62 | < 4.60 | < 4.60 | 5.15 | < 4.60 | 5.15 | < 4.60 | < 4.60 | 4.89 |  |  |  |  |  |  | 
COc1nn(C)cc1C(=O)Nc1nc(-c2ccc3c(c2)CCC(=O)N3)cs1 [Compound 42, 3-methoxy-1-methyl-N-(4-(2-oxo-1,2,3,4-tetrahydroquinolin-6-yl)thiazol-2-yl)-1H-pyrazole-4-carboxamide] | < 4.60 | < 4.60 | < 4.60 | < 4.60 | < 4.60 | < 4.60 | < 4.60 | < 4.60 | < 4.60 | < 4.60 |  |  |  |  |  |  | 
Cn1cc(C(=O)Nc2nc(-c3ccc4c(c3)CCC(=O)N4)cs2)c(C(F)F)n1 [Compound 27, 3-(difluoromethyl)-1-methyl-N-(4-(2-oxo-1,2,3,4-tetrahydroquinolin-6-yl)thiazol-2-yl)-1H-pyrazole-4-carboxamide] | < 4.60 | < 4.60 | < 4.60 | 4.85 | < 4.60 | < 4.60 | 4.80 | < 4.60 | < 4.60 | < 4.60 |  |  |  |  |  |  | 
COCCN1C(=O)CCc2cc(-c3csc(NC(=O)c4oc(C)nc4C)n3)ccc21 [Compound 95, N-(4-(1-(2-methoxyethyl)-2-oxo-1,2,3,4-tetrahydroquinolin-6-yl)thiazol-2-yl)-2,4-dimethyloxazole-5-carboxamide] | 5.15 | 5.22 | 5.30 | 5.00 | < 4.60 | 5.40 | 5.40 | < 4.60 |  | 5.00 | < 4.60 | 15.4 | < 4.60 | < 4.60 | 4.85 | 5.70 | 5.1
Cc1nn(C)c(C)c1C(=O)Nc1nc(-c2ccc3c(c2)CCC(=O)N3Cc2cccnc2)cs1 [Compound 113, 1,3,5-trimethyl-N-(4-(2-oxo-1-(pyridin-3-ylmethyl)-1,2,3,4-tetrahydroquinolin-6-yl)thiazol-2-yl)-1H-pyrazole-4-carboxamide] | 4.72 | < 4.60 | < 4.60 | 5.70 | < 4.60 | 4.96 | 5.70 | < 4.60 |  | 5.22 | < 4.60 | 9.6 | 4.85 | 4.89 | < 4.60 | 5.15 | 6.3
COc1cccc(CN2C(=O)CCc3cc(-c4csc(NC(=O)c5oc(C)nc5C)n4)ccc32)c1OC [Compound 93, N-(4-(1-(2,3-dimethoxybenzyl)-2-oxo-1,2,3,4-tetrahydroquinolin-6-yl)thiazol-2-yl)-2,4-dimethyloxazole-5-carboxamide] | 5.05 | 5.22 | < 4.60 | 5.10 | < 4.60 | 5.40 | 5.30 | < 4.60 |  | < 4.60 | < 4.60 | 10 | < 4.60 | < 4.60 | 4.82 | 5.92 | 8.6
Cc1nc(C)c(C(=O)Nc2nc(-c3ccc4c(c3)CCC(=O)N4C3CCCC3)cs2)o1 [Compound 69, N-(4-(1-cyclopentyl-2-oxo-1,2,3,4-tetrahydroquinolin-6-yl)thiazol-2-yl)-2,4-dimethyloxazole-5-carboxamide] | 5.15 | 5.22 | 5.70 | 5.10 | < 4.60 | 5.70 | 5.52 | < 4.60 |  | 5.30 | 5.70 | 18.6 | < 4.60 | 5.52 | 4.77 | 5.70 | 8.1
COC(=O)CCN1C(=O)CCc2cc(-c3csc(NC(=O)c4oc(C)nc4C)n3)ccc21 [Compound 99, methyl 3-(6-(2-(2,4-dimethyloxazole-5-carboxamido)thiazol-4-yl)-2-oxo-3,4-dihydroquinoiolin-1 (2H)-yl)propanoate] | 5.22 | < 4.60 | < 4.60 | 4.85 | 5.40 | < 4.60 | 5.22 | < 4.60 |  | 5.30 | < 4.60 | 10.2 | 5.22 | < 4.60 | 5.00 | 5.30 | 6.7

Reference: US10344026B2, “Compositions and methods of targeting mutant K-ras” (NANTBIO, INC., priority 2017, dated 2019)
